The target of this test is rgH1N1 NA (Influenza A virus, UniProt Q6DPL2). The format is biochemical, reverse-genetic influenza A virus rgH1N1.

The Km is the concentration of substrate that gives half-maximal velocity.

Chain of rgH1N1 NA (Q6DPL2 whole entry, looked up): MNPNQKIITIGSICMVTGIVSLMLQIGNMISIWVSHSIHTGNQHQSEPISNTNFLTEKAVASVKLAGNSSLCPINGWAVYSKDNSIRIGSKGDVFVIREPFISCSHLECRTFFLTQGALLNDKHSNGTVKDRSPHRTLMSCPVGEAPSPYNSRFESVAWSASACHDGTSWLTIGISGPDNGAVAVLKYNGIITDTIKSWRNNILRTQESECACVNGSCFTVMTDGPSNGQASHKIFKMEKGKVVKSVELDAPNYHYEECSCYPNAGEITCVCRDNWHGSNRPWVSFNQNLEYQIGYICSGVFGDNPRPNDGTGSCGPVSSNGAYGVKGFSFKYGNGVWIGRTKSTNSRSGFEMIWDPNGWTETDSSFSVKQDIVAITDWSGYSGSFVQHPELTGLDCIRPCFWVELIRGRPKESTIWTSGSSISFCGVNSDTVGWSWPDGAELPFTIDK

Regarding `CC(=O)N[C@@H]1[C@@H](O)C[C@](Oc2ccc3c(C)cc(=O)oc3c2)(C(=O)O)O[C@H]1C(O)[C@H](O)CO` (stereo partly drawn) [MUNANA, 2′-(4-methylumbelliferyl)-α-D-N-acetylneuraminic acid], the Km was determined as 18 ± 2 µM.
